Data set [1] deals with β-1,3-glucanase gene expression. As to the kind of experiment: Leaf treatment of tobacco plants, Northern blot of β-1,3-glucanase transcripts in local and systemic leaves. The following applies: 3 and 8 hours of incubation. In kind it is in vivo, Nicotiana tabacum. The procedure: We have shown that treatment of tobacco plants with cell wall-degrading enzymes (CDE) leads to the rapid induction of β-1,3-glucanase and other PR genes, both locally and systemically (Vidal et al, 1997). […] We used a commercial preparation of fungal CDEs instead of custom made Erwinia-derived hydrolases to increase reproducibility. One leaf from each tobacco plant was treated with CDEs and the induction of BiP gene expression was analysed in the treated (local) and untreated (systemic) leaves from the same plant. […] This induction was observed locally as well systemically with the same timing and intensity. β-1,3-glucanase transcript accumulation is detectable only after 4 hours of incubation and reaches its plateau after 8 hours as described previously (Vidal et al, 1997). Whereas BiP induction is transient, β-1,3-glucanase mRNA levels continue to be high after prolonged incubation times (24-48 hours). […] The signal involved in the systemic response of BiP gene expression must therefore be transported very rapidly from the local leaf to the distal leaves.
Even though BiP induction occurs prior to β-1,3 glucanase induction, we cannot rule out that other, as yet unidentified defence related proteins are induced more rapidly and perhaps before BiP in our experimental system. […]

The subject of data set [2] is tobacco protoplasts (GUS, cell viability). Kind of data set: Transient expression in tobacco protoplasts (pNL200), GUS internal marker. In kind it is cell-based, Nicotiana tabacum. Particulars: tunicamycin 20 μg/mL, 20 hr. The source says: We have established a model system based on the comparison of protein biosynthesis in the cytosol and on the rough ER using transient expression. A plasmid was constructed (pNL200, FIG. 12A) containing two genes, one encoding the secreted barley α-amylase (Rogers, 1985) and the other encoding the cytosolic marker β-glucuronidase (GUS; Jefferson et al., 1987). α-Amylase was used to measure secretory protein biosynthesis, and GUS was used to control for transfection efficiency and overall cell viability. We compared cells under normal culture conditions with cells subjected to ER stress by treatment with tunicamycin. […]
Tobacco leaf protoplasts (from transformed or untransformed plants) were prepared, and electroporation experiments were performed as previously described (Denecke and Vitale, 1995), with minor modifications to the electroporation conditions. […] After 24 or 48 hr, the protoplasts were analysed by enzymatic assay or by protein gel blotting. […]
GUS activity in protoplasts was measured with a […] assay. six mililiters of floated protoplasts were diluted in TEX buffer (B5 salts, 250 mg/L NH4NO3, 750 mg/L CaCl2, 500 mg/L MES, and 0.4 M sucrose, pH 5.7) and were spun down by the addition of 20 mL of 250 mM NaCl. […] The absorbance was measured at 415 nm against a blank containing stop buffer that had been incubated at 37° C. for the duration of the reaction time.

Data set [3] deals with PR1 mRNA. The following applies: same experimental system, Vidal et al, 1997; cited from earlier work.

For the compound tunicamycin, in data set [1], the “expression of β-1,3-glucanase, local and systemic” value was “neither locally nor systemically induced”. For the same compound, the “cell viability monitored with the internal marker GUS” value in data set [2] was “does not affect cell viability”.
In the case of `O=C(O)c1ccccc1O` [SA, Salicylic Acid], the “time until which PR1 continues to accumulate (shown previously)” value in data set [3] is ≤ 48 h.
